Data: the supplement of paper PMC10307832

Columns and labels:
Assay in all cases: relative viability (nuclei count vs DMSO), 5 days (fraction); higher = more cells survive
[1] = compound: C[C@]1(O)C[C@@H](c2nc(-c3ccc4ccc(-c5ccccc5)nc4c3)c3c(N)nccn32)C1 [Linsitinib] + CC(C)C[C@H](NC(=O)[C@H](Cc1ccccc1)NC(=O)c1cnccn1)B(O)O [Bortezomib] (partner 0.002 µM)
Method in brief: (§1)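 Values are medians from duplicate plates. Each reflects relative viability, defined as the nuclei count of treated wells over that of vehicle wells. Lung cancer cell lines in 1536-well plates were pin-tool dosed one day after seeding with one drug alone or with a fixed anchor-drug dose plus five library-drug doses (not always all listed) in √10 steps, then fixed, stained and imaged at 4× after 5 days.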

[2] = compound: C[C@]1(O)C[C@@H](c2nc(-c3ccc4ccc(-c5ccccc5)nc4c3)c3c(N)nccn32)C1 [Linsitinib] + CCNC(=O)c1noc(-c2cc(C(C)C)c(O)cc2O)c1-c1ccc(CN2CCOCC2)cc1 [Luminespib] (partner 0.01 µM)
Method in brief: as §1

[3] = compound: Cc1ccc(C(=O)N(CCCN)[C@@H](c2nc3cc(Cl)ccc3c(=O)n2Cc2ccccc2)C(C)C)cc1 [Ispinesib] + Cc1cc(Nc2cc(N3CCN(C)CC3)nc(Sc3ccc(NC(=O)C4CC4)cc3)n2)n[nH]1 [Tozasertib] (partner 0.1 µM)
Method in brief: as §1

[4] = compound: Cc1ccc(C(=O)N(CCCN)[C@@H](c2nc3cc(Cl)ccc3c(=O)n2Cc2ccccc2)C(C)C)cc1 [Ispinesib] + Cc1nc(NC(=O)N2CCC[C@H]2C(N)=O)sc1-c1ccnc(C(C)(C)C(F)(F)F)c1 [Alpelisib] (partner 2 µM)
Method in brief: as §1

In the case of NCI-H1993, the relative viability ([1]; first compound 0.01 µM) is reported as 1.26, the relative viability ([1]; first compound 0.03162 µM) is reported as 1.29 and the relative viability ([1]; first compound 0.1 µM) is reported as 1.32. It also gave a relative viability ([1]; first compound 0.3162 µM) of 0.797, a relative viability ([1]; first compound 1 µM) of 0.695 and a relative viability ([2]; first compound 0.01 µM) of 0.751. The relative viability ([2]; first compound 0.03162 µM) was 0.852, the relative viability ([2]; first compound 0.1 µM) was 0.835 and the relative viability ([2]; first compound 0.3162 µM) was 0.794. The relative viability ([2]; first compound 1 µM) was 0.498, the relative viability ([3]; first compound 0.001 µM) was 0.54 and the relative viability ([3]; first compound 0.003162 µM) was 0.509. The relative viability ([3]; first compound 0.01 µM) was 0.574, the relative viability ([3]; first compound 0.03162 µM) was 0.519 and the relative viability ([3]; first compound 0.1 µM) was 0.588. For the same cell line, the relative viability ([4]; first compound 0.001 µM) was 0.697, the relative viability ([4]; first compound 0.003162 µM) was 0.637 and the relative viability ([4]; first compound 0.01 µM) was 0.709. The relative viability ([4]; first compound 0.03162 µM) was 0.663 and the relative viability ([4]; first compound 0.1 µM) was 0.596.
Cell Line NCI-H2405 has a relative viability ([1]; first compound 0.01 µM) of 0.592, a relative viability ([1]; first compound 0.03162 µM) of 0.929 and a relative viability ([1]; first compound 0.1 µM) of 0.949. It also gave a relative viability ([1]; first compound 0.3162 µM) of 0.676, a relative viability ([1]; first compound 1 µM) of 0.921 and a relative viability ([2]; first compound 0.01 µM) of 0.762. It also gave a relative viability ([2]; first compound 0.03162 µM) of 0.724, a relative viability ([2]; first compound 0.1 µM) of 0.653 and a relative viability ([2]; first compound 0.3162 µM) of 0.703. For the same cell line, the relative viability ([2]; first compound 1 µM) was 0.475, the relative viability ([3]; first compound 0.001 µM) was 0.798 and the relative viability ([3]; first compound 0.003162 µM) was 0.7. For the same cell line, the relative viability ([3]; first compound 0.01 µM) was 0.858, the relative viability ([3]; first compound 0.03162 µM) was 0.771 and the relative viability ([3]; first compound 0.1 µM) was 0.965. It also gave a relative viability ([4]; first compound 0.001 µM) of 0.922, a relative viability ([4]; first compound 0.003162 µM) of 0.647 and a relative viability ([4]; first compound 0.01 µM) of 0.763. The relative viability ([4]; first compound 0.03162 µM) was 0.717 and the relative viability ([4]; first compound 0.1 µM) was 0.364.
For NCI-H661, the relative viability ([1]; first compound 0.01 µM) was 0.893, the relative viability ([1]; first compound 0.03162 µM) was 0.801 and the relative viability ([1]; first compound 0.1 µM) was 0.761. The relative viability ([1]; first compound 0.3162 µM) was 0.986, the relative viability ([1]; first compound 1 µM) was 0.749 and the relative viability ([2]; first compound 0.01 µM) was 0.924. It also gave a relative viability ([2]; first compound 0.03162 µM) of 1.05, a relative viability ([2]; first compound 0.1 µM) of 0.948 and a relative viability ([2]; first compound 0.3162 µM) of 0.945. It also gave a relative viability ([2]; first compound 1 µM) of 1.01, a relative viability ([3]; first compound 0.001 µM) of 0.355 and a relative viability ([3]; first compound 0.003162 µM) of 0.396. It also gave a relative viability ([3]; first compound 0.01 µM) of 0.384, a relative viability ([3]; first compound 0.03162 µM) of 0.379 and a relative viability ([3]; first compound 0.1 µM) of 0.369. It also gave a relative viability ([4]; first compound 0.001 µM) of 0.593, a relative viability ([4]; first compound 0.003162 µM) of 0.972 and a relative viability ([4]; first compound 0.01 µM) of 0.745. For the same cell line, the relative viability ([4]; first compound 0.03162 µM) was 0.369 and the relative viability ([4]; first compound 0.1 µM) was 0.508.
